Data taken from patent US20130014428A1, “METHODS OF MONITORING AND CONTROLLING THE WALNUT TWIG BEETLE, PITYOPHTHORUS JUGLANDIS” (The United States of America as Represented by the …, priority 2011, published 2013).

Key:
WTB [1] = experiment: Baited vs unbaited funnel trap pairs in Tennessee and Virginia; format: in vivo, Pityophthorus juglandis; conditions: 15-80 mg/d
Protocol: The efficacy of the WTB trap bait as a detection tool was tested across the United States for a range of populations of the beetle that might be biologically heterogeneous and may occur at various densities in the landscape. The information learned from these trials was instrumental in preparing the national trapping guidelines for walnut twig beetle. […] For each state, trapping was performed in areas of known WTB infestation as well as nearby localities where WTB had not been previously detected. […]
To compare the effectiveness of the bait in the eastern range of WTB, pairs of baited and unbaited traps were located in Tennessee (3 pairs, 10 repeated measures for each pair) and Virginia (4 pairs, 12 repeated measures for each pair). […] Trap catch data were analyzed with a sign test. […]

[2] = test system: walnut twig beetle (WTB), Pityophthorus juglandis; experiment: Example 1 Field Test 1: flight response to X and related isomers, yellow sticky card traps; format: in vivo
Protocol: Field Bioassays of Semiochemicals. […] Contech Enterprises Inc., Delta, British Columbia, Canada) and attached to yellow sticky card traps ([…], OK). In addition, synthesized (+) and (-) enantiomers of trans-conophthorin were tested in 400 μl polyethylene Eppendorf microcentrifuge tubes. Four field studies were conducted (Table 2) that tested the flight responses to: 3-methyl-2-buten-l-ol and related isomers (Field Test 1); 3-methyl-2-buten-l-ol with and without racemic trans-conophthorin (Field Test 2); 3-methyl-2-buten-l-ol with and without the purified enantiomers of trans-conophthorin (Field Test 3); and 3-methyl-2-buten-l-ol with and without racemic chalcogran (Field Test 4). [table] Statistical Analysis. Field Tests 1-4 were each analyzed for treatment effect by using Friedman's non-parametric analysis of variance. (See Zar, J. H. 2010. Biostatistical Analysis, 5th Ed. Pearson Prentice Hall, New Jersey). Males and females were subjected to separate analyses. All treatments within experiments yielding a significant treatment effect were compared by using an a posteriori Nemenyi test (Zar 2010) with experimentwise α=0.05. Sex ratios of responding WTB were determined using Cochran's method for unbiased sampling (See Cochran, W. G. 1977. Sampling Techniques, 3rd ed. John Wiley, New York), with 95% confidence intervals calculated by using the Clopper-Pearson method. (See Zar, J. H. 2010. Biostatistical Analysis, 5th Ed. Pearson Prentice Hall, New Jersey).

WTB [3] = experiment: Trap type: four Lindgren funnel traps and intercept panel trap baited with X; format: in vivo, Pityophthorus juglandis; conditions: for trap catches, female WTB / trap catches, male WTB: 15-80 mg/d
Protocol: In another set of experiments, the flight response of WTB to four types of Lindgren funnel traps (Contech) and an intercept panel trap (Alpha Scents Inc., Portland Oreg., product # AST0031) was tested at Wolfskill Experimental Orchards in mid-summer. Each trap was baited with the commercial formulation of 3-methyl-2-buten-1-ol (15-80 mg/d, Contech) hung inside the middle funnel of each funnel trap or in a recess in the middle of the cross vane panels of the panel trap. Each trap cup was filled with propylene glycol as described above and the traps were suspended from the top of a 3 m metal conduit pole. Three blocks of traps were installed and trap catches were collected daily when the flight activity was high. The five treatments were re-randomized among the five trap stations within each of the three blocks each time that the traps were emptied.
Statistical Analyses. Analyses of treatment effects for the tests of trap type were performed by using Friedman's non-parametric analysis of variance or a sign test, depending on the number of treatments. (See Zar, J. H. 2010. Biostatistical Analysis. 5th ed. Pearson Prentice Hall, Englewood Cliffs, N.J.) Analysis of treatment effects for the Rain•X experiment was performed by using a Wilcoxon paired sample test. Id. Multiple comparisons for experiments with more than two treatments were performed with an a posteriori Nemenyi test with experimentwise α=0.05. Id. In all cases, male and female WTB were analyzed separately. Proportions of female WTB responding to treatments were calculated and 95% confidence intervals determined by using the Clopper-Pearson method. Id.

[4] = about three months in summer, Davis CA, N=21

SMILES: CC(C)=CCO [X, 3-methyl-2-buten-1-ol]
- WTB detected at baited traps (WTB [1]; Tennessee, 4-unit funnel traps, N=30): 19.1 WTB/trap/week
- WTB captured in baited traps (WTB [1]; Virginia, 12-unit funnel traps, N=48): 42.3 WTB/trap/week
- flight attraction [2]: attractive to males and females
- proportion of females responding ([2]; Davis CA): 0.65
- trap catches, female WTB [2, 4]: 438
- trap catches, male WTB [2, 4]: 233
- trap catches, female WTB (WTB [3]; 4-unit Lindgren funnel trap): 231
- trap catches, male WTB (WTB [3]; 4-unit Lindgren funnel trap): 72
- proportion of females responding (WTB [3]; 4-unit trap): 0.76
- proportion of females responding (WTB [3]; 8-unit trap): 0.76
- trap catches, female WTB (WTB [3]; 8-unit trap): 634
- trap catches, male WTB (WTB [3]; 8-unit trap): 202
- proportion of females responding (WTB [3]; 12-unit trap): 0.72
- trap catches, female WTB (WTB [3]; 12-unit trap): 892
- trap catches, male WTB (WTB [3]; 12-unit trap): 352
- proportion of females responding (WTB [3]; 16-unit trap): 0.73
- trap catches, female WTB (WTB [3]; 16-unit trap): 618
- trap catches, male WTB (WTB [3]; 16-unit trap): 233
- trap catches, female WTB (WTB [3]; intercept panel trap): 296
- trap catches, male WTB (WTB [3]; intercept panel trap): 128
- proportion of females responding (WTB [3]; panel trap): 0.70
